Reference: PubChem BioAssay (NCI)
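Assay format: 96-well plates, 48-hour exposure. TGI denotes the concentration required for complete inhibition of growth.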

Tests used:
Assay in all cases: inhibition of tumour cell growth, NCI panel, 48 h
[1] = tested on: 786-0 renal
[2] = tested on: A498 renal
[3] = tested on: A549 NSCLC
[4] = tested on: ACHN renal
[5] = tested on: BT-549 breast
[6] = tested on: CAKI-1 renal
[7] = tested on: DU-145 prostate
[8] = tested on: EKVX NSCLC
[9] = tested on: HCT-116 colon
[10] = tested on: HCT-15 colon
[11] = tested on: HL-60(TB) leukemia
[12] = tested on: HOP-62 NSCLC
[13] = tested on: HOP-92 NSCLC
[14] = tested on: HS 578T breast
[15] = tested on: HT29 colon
[16] = tested on: IGROV1 ovarian
[17] = tested on: K-562 leukemia
[18] = tested on: KM12 colon
[19] = tested on: LOX IMVI melanoma
[20] = tested on: M14 melanoma
[21] = tested on: MALME-3M melanoma
[22] = tested on: MCF7 breast
[23] = tested on: MDA-MB-231 breast
[24] = tested on: MDA-MB-435
[25] = tested on: MOLT-4 leukemia
[26] = tested on: NCI-H226 lung
[27] = tested on: NCI-H23 lung
[28] = tested on: NCI-H460 lung
[29] = tested on: NCI-H522 lung
[30] = tested on: NCI/ADR-RES ovarian
[31] = tested on: OVCAR-3 ovarian
[32] = tested on: OVCAR-4 ovarian
[33] = tested on: OVCAR-5 ovarian
[34] = tested on: OVCAR-8 ovarian
[35] = tested on: PC-3 prostate
[36] = tested on: RPMI-8226 leukemia
[37] = tested on: RXF 393 renal
[38] = tested on: SF-268 CNS
[39] = tested on: SF-295 CNS
[40] = tested on: SF-539 CNS
[41] = tested on: SK-MEL-2 melanoma
[42] = tested on: SK-MEL-28 melanoma
[43] = tested on: SK-MEL-5 melanoma
[44] = tested on: SN12C renal
[45] = tested on: SNB-75 CNS
[46] = tested on: SR leukemia
[47] = tested on: SW-620 colon
[48] = tested on: TK-10 renal
[49] = tested on: U251 CNS
[50] = tested on: UACC-257 melanoma
[51] = tested on: UACC-62 melanoma
[52] = tested on: UO-31 renal

## Nc1ncnc2c1ncn2Cc1cccc(CCl)c1
[1]
  TGI: 34.6 µM
[2]
  TGI: 30 µM
[3]
  TGI: 91.4 µM
[4]
  TGI: 37.2 µM
[5]
  TGI: 25.8 µM
[6]
  TGI: 37 µM
[7]
  TGI: 27.1 µM
[8]
  TGI: 37.1 µM
[9]
  TGI: 24.6 µM
[10]
  TGI: 41.7 µM
[11]
  TGI: > 100 µM
[12]
  TGI: 30.5 µM
[13]
  TGI: 65.5 µM
[14]
  TGI: > 100 µM
[15]
  TGI: > 100 µM
[16]
  TGI: 31.8 µM
[17]
  TGI: > 100 µM
[18]
  TGI: 33 µM
[19]
  TGI: 71.7 µM
[20]
  TGI: 29.7 µM
[21]
  TGI: 37.7 µM
[22]
  TGI: 30.3 µM
[23]
  TGI: 34 µM
[24]
  TGI: 44.6 µM
[25]
  TGI: > 100 µM
[26]
  TGI: 33.4 µM
[27]
  TGI: 36.5 µM
[28]
  TGI: 29.9 µM
[29]
  TGI: 32.5 µM
[30]
  TGI: 50.8 µM
[31]
  TGI: 32.3 µM
[32]
  TGI: 47.3 µM
[33]
  TGI: 32.1 µM
[34]
  TGI: 42.9 µM
[35]
  TGI: 35.5 µM
[36]
  TGI: 44.5 µM
[37]
  TGI: 18.8 µM
[38]
  TGI: 32.4 µM
[39]
  TGI: 41.8 µM
[40]
  TGI: 33.4 µM
[41]
  TGI: 31.9 µM
[42]
  TGI: 51.1 µM
[43]
  TGI: 30.4 µM
[44]
  TGI: 29.3 µM
[45]
  TGI: > 100 µM
[46]
  TGI: 46 µM
[47]
  TGI: 29.9 µM
[48]
  TGI: 34.4 µM
[49]
  TGI: 32.5 µM
[50]
  TGI: 30.4 µM
[51]
  TGI: 25.8 µM
[52]
  TGI: 32.5 µM
